Data published in patent US6900019B1, “In-situ cell extraction and assay method” (Amersham Biosciences UK Limited, priority 1997, dated 2005).

Columns and labels:
Mouse 3T3 cells = test: Intracellular prostaglandin E2 in A23187-stimulated mouse 3T3 cells (EIA); format: cell-based; settings: 100 μM A23187, 5 minutes
Method: Mouse 3T3 cells were cultured in DMEM media containing 10% (v/v) foetal calf sera (FCS). For PGE2 assays, cells were seeded into standard 96-well tissue culture plates in 100 μl volumes (between 10^5-10^6 cells/ml). Cells were cultured overnight at 37° C. in a 95% air/5% CO2 atmosphere. At this stage a check was made to ensure cells remained viable with Trypan blue exclusion.
On day 2, working solutions of A23187 (1-100 μM final concentration) were prepared in DMEM media in order to stimulate the production of PGE2. Two controls were prepared (a DMSO and a culture media only control). Here cells were cultured in the absence of A23187. Test cell cultures were stimulated with the calcium ionophore A23187 for 5 minutes at room temperature. The culture supernatant was decanted, cells were washed with phosphate buffered saline and lysed with 100 μl/well 0.5% (w/v) DTAB prepared in assay buffer. A check for cell lysis was made with a second Trypan blue exclusion test.
Working PGE2 standards (2.5-320 pg/well) were prepared in polypropylene tubes with assay buffer containing 0.5% (w/v) DTAB. […] Non-specific binding was measured in the absence of PGE2 antisera. […] The optical densities were determined with a microtitre plate spectrophotometer set at 450 nm. Intracellular PGE2 levels were determined using log/linear analysis with reference to a standard curve. […]

ECV304 cells = test: Intracellular IL-6 from IL-1β stimulated ECV304 cells (ELISA); format: cell-based, human; settings: 500 pg/ml IL-1β overnight
Method: ECV304 cells were cultured in M-199 media containing 10% (v/v) foetal calf sera (FCS). For IL-6 assays, cells were seeded into standard 96-well tissue culture plates in 100 μl volumes (between 10^5-10^6 cells/ml). Cells were cultured overnight at 37° C. in a 95% air/5% CO2 atmosphere. On day 2 working solutions of IL-1β (2-500 pg/ml; final concentration) were prepared in M-199 media in order to stimulate the production of IL-6. A culture media blank was prepared with cultured cells grown in the absence of IL-1β. Cells were again cultured overnight at 37° C. in a 95% air/5% CO2 atmosphere. On day 3, a 1% (wt) solution of DTAB was prepared in standard diluent. […]
Working standards (10.24400 pg/ml IL-6) were prepared in polypropylene tubes using assay buffer containing 1% (w/v) DTAB. […] Non-specific binding was measured in the absence of IL-6 (zero IL-6 standard). […] The optical density was determined with a microtitre plate spectrophotometer set at 450 nm. Interleukin-6 levels were determined using log/linear analysis with reference to a standard curve. […]
ECV304 cells were seeded at a density of 100,000 cells per well and cultured overnight to confluence in standard 96-well tissue culture plates as described under the methods section. […] Levels of IL-6 were measured in the samples with ELISA (the biotinylated antibody was prepared in the presence of 3% (w/v) alpha-cyclodextrin).

Row | Compound | Intracellular PGE2 levels (Mouse 3T3 cells) | Intracellular IL-6 levels (ECV304 cells)
1 | CNc1ccc2oc(C[C@H]3O[C@@]4(CC[C@H]3C)O[C@H]([C@H](C)C(=O)c3ccc[nH]3)[C@H](C)C[C@H]4C)nc2c1C(=O)O [A23187] | over 400 pg/10^6 cells | 
2 | IL-1β: Interleukin-1β (Amersham, ARM 17005), used to stimulate the production of IL-6 |  | over 400 pg/10^6 cells
